In PMC8701324, “Structural Insight into the Mechanism of PALB2 Interaction with MRG15” (Genes, 2021):
One block for each substance: values may come before it. Where no end group is shown, it is not given here. The star is where a group is joined. 6xHis = N-terminal hexahistidine tag, N[C@@H](Cc1c[nH]cn1)C(=O)N[C@@H](Cc1c[nH]cn1)C(=O)N[C@@H](Cc1c[nH]cn1)C(=O)N[C@@H](Cc1c[nH]cn1)C(=O)N[C@@H](Cc1c[nH]cn1)C(=O)N[C@@H](Cc1c[nH]cn1)C(=O)*

Key:
MRG15 (MRG domain) = biological target: T1, MRG15 (MRG domain) (Homo sapiens, UniProt Q9UBU8); test: Fluorescence anisotropy competition assay: displacement of WT FAM-PALB2; assay type: binding; conditions: competition with WT FAM-PALB2, relative to WT
T1 construct: The MRG15 MRG domain, encompassing amino acids 155–323, was cloned into the pET28b^+-based pSMT3 vector; 6xHis-SUMO (N, cleaved yes); made in house; host or cells: E. coli BL21*
T1 sequence (Q9UBU8 194-362): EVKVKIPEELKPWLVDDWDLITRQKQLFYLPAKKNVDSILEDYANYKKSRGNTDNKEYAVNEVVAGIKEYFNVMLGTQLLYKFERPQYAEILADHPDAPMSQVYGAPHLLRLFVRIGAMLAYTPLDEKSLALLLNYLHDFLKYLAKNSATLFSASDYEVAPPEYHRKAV
Protocol: For competition assays, mutant PALB2^597−630 peptides (Genscript Biotech, Piscataway, NJ, USA) were dissolved in DMSO and serially diluted from 10 µM to 0.6 nM in 20 µL of 25 mM HEPES pH 8.0, 1 mM TCEP, 10% DMSO, and 200 mM NaCl. A total of 40 nM MRG15 was mixed with 10 nM PALB2-FAM and incubated for 15 min at room temperature (RT). 20 µL of the MRG15 with FAM-PALB2 was then added to each well, resulting in a final concentration of […]. The total reaction volume was 40 µL. The plate was then shaken for 2 min and incubated for 15 min before the fluorescence anisotropy was measured as above. The inhibition constant Ki was calculated similarly to Kd (above).
Mutations of several residues in the MRG-binding region of PALB2 were found in breast cancer patients, including Asp616His, Pro615Ser and Pro621Thr mutations (Figure 5A,B). We analyzed the effect of these mutations on PALB2 interaction with MRG by a competition assay (Figure 5C,D). An MRG complex with 10 nM WT PALB2 peptide was formed, and the comparative affinity of mutants (Ki) was assayed by the dissociation rate of FAM-PALB2 from MRG15 upon titration by a mutant peptide. In addition, the contribution of core hydrophobic amino acids was assayed by alanine substitution. None of the peptides with a core hydrophobic amino acid substitution were able to compete with wtPALB2 binding. […] Substitution of Asp616 with histidine reduced the affinity by a factor of 2. […] Substitution of this proline in the middle of an α-helical turn may increase flexibility and result in a tighter binding of αH2 to the hydrophobic pocket of MRG.

MRG15^155−323 = test: Ni-NTA pull-down of MRG15 by 6xHis-tagged PALB2 peptides; assay type: binding; conditions: preliminary qualitative experiment; Ni-NTA agarose, SDS-PAGE
Protocol: Ni-NTA beads (200 µL of 50% slurry) were equilibrated with Buffer B (25 mM HEPES pH 7.5, 10% glycerol, 2 mM CHAPS and 300 mM NaCl). 1 mL of PALB2 peptide at concentration 0.1 mg·mL^−1 was bound to Ni-NTA beads, and excess peptides were washed off with Buffer B (1 mL). A total of 1 mL of 0.1 mg·mL^−1 MRG15^155−323 was added to the beads and incubated for 30 min. Beads were washed 3 times with Buffer B with 20 mM imidazole. Protein complexes were eluted with Buffer B with 250 mM imidazole. MRG15^155−323 alone, mixed with Ni-NTA beads without any peptide bound, was used as control to eliminate non-specific binding. Samples were analyzed by SDS-PAGE.
Proteins interact with the MRG domain through a conserved FxLP motif. All known structures of MRG complexes reveal significant contributions to the binding of extended regions up- and downstream of the FxLP motif. Flanking regions have low sequence and structural conservation, making it challenging to predict which regions of PALB2 around the FQLP sequence motif (amino acids 612–615) are involved in the interaction. […] The binding affinity of this peptide to MRG15 was measured using the polarization anisotropy method with fluorescein-labeled PALB2^597−630 peptide (FAM-PALB2, Genscript Biotech, Piscataway, NJ, USA). […]

[1] = biological target: T2, MRG15^155−323 (MRG domain) (Homo sapiens, UniProt Q9UBU8); test: Fluorescence anisotropy binding of FAM-PALB2 peptide
T2 construct: The MRG15 MRG domain, encompassing amino acids 155–323, was cloned into the pET28b^+-based pSMT3 vector; 6xHis-SUMO (N, cleaved yes); made in house; host or cells: E. coli BL21*
T2 sequence (Q9UBU8 194-362): as above
Protocol: Fluorescence anisotropy binding and competition assays were performed using black 384-well plates (Corning Inc., Corning, NY, USA) and a Synergy Neo2 plate reader (BioTek, Winooski, VT, USA). Binding assays were conducted by serially diluting the MRG15 fragment from 10 µM to 0.6 nM. A 40 µL solution of 20 µM MRG was serially diluted in 20 µL of 25 mM HEPES pH8.0, 1 mM TCEP, 10% DMSO, and 200 mM NaCl. A total of 20 µL of a 20 nM FAM-PALB2^597−630 solution was then added to each well for a final reaction volume of 40 µL and a final PALB2 concentration of 10 nM. The plate was shaken for 2 min and incubated for 15 min. Fluorescence anisotropy was measured with 485/20 nm excitation and 528/20 nm emission using Gen5.0 (BioTek) software. Kd was calculated with GraphPad Prism software by fitting the data with a non-linear regression analysis using a standard four-parameter logistic equation to identify Kd. […] R^2 is determined by the Prism software by computing the sum of the squares of the distances of the points from the best-fit curve determined by a nonlinear regression model.
Proteins interact with the MRG domain through a conserved FxLP motif. […] The binding affinity of this peptide to MRG15 was measured using the polarization anisotropy method with fluorescein-labeled PALB2^597−630 peptide (FAM-PALB2, Genscript Biotech, Piscataway, NJ, USA). […]

reduction in binding affinity vs WT (MRG15 (MRG domain)): 5 fold
Substance: MLSLKQLLSFLSITDFQLSDEDFGPLKLEKVKSC [P615S]

binding affinity to MRG domain [1]: nanomolar affinity
Substance: 597 630: PALB2 fragment encompassing amino acids 597–630 with the N-terminal 6xHis tag; crystallized with MRG15 (PDB ID 7S4A) (6xHis-MLSLKQLLSFLSITDFQLPDEDFGPLKLEKVKSC)
complex formation with MRG15 in pull-down (MRG15^155−323): sufficient for the formation of a stable complex

factor by which affinity is reduced vs WT (MRG15 (MRG domain); 'by a factor of'): 2
Substance: MLSLKQLLSFLSITDFQLPHEDFGPLKLEKVKSC [D616H]

effect on binding affinity (MRG15 (MRG domain)): increased the binding affinity
Substance: MLSLKQLLSFLSITDFQLPDEDFGTLKLEKVKSC [P621T]
